The nature of data set [1]: Assay 1. Stability in Simulated Gastric Fluid (SGF). The class given is in vitro ADME. Particulars: SGF pH 1.6 with pepsin, 1 μM, 37° C. As for the experimental part:
Assay 1. Stability of acylated active agents in Simulated Gastric Fluid (SGF). This assay was used to assess the stability of an acylated active agent in a stomach.
Medium was prepared by dissolving 2 g of sodium chloride in 0.6 L in ultrapure water (MilliQ®, Millipore Sigma, Darmstadt, Germany). The pH was adjusted to 1.6 with 1N hydrochloric acid, and the volume was then adjusted to 1 L with purified water.
60 mg FaSSIF powder (Biorelevant™, London, UK) were dissolved in 500 mL buffer (above). Pepsin was added (0.1 mg/mL) (Millipore Sigma, Darmstadt, Germany), and the solution was stirred. The resulting SGF media were used fresh for each experiment.
Test compounds were dissolved in DMSO stock to 1 mM. An aliquot of the DMSO stock solution was removed and diluted in the SGF Media in 15 mL falcon tubes to generate a total compound concentration of 1 μM. A 1 mL aliquot was immediately removed and diluted once with 1 volume of acetonitrile for T0 timepoint. The mixture was sealed and mixed at 37° C. in an incubator. Aliquots (1 mL) were removed at regular intervals and immediately quenched by the addition of 1 volume of acetonitrile. The resulting samples were analyzed by LC/MS to determine degradation rates in SGF.

Data set [2] can be described thus: Assay 2. Stability in Simulated Intestinal Fluid (SIF). Type of data set: in vitro ADME. As to conditions: SIF pH 6.7 with pancreatin, 1 μM, 37° C. As to the method:
Assay 2. Stability of acylated active agents in Simulated Intestinal Fluid (SIF). This assay was used to assess the stability of an acylated active agent in a small intestine. Phosphate buffer was prepared by dissolving 0.42 g of sodium hydroxide pellets and 3.95 g of monobasic sodium phosphate monohydrate and 6.19 g of sodium chloride in ultrapure water (MilliQ®, Millipore Sigma, Darmstadt, Germany). The pH was adjusted to 6.7 using aq. HCl and aq. NaOH, as necessary, and the solution was diluted with ultrapure water to produce 1 L of the pH 6.7 buffer. 112 mg FaSSIF powder (Biorelevant™, London, UK) was dissolved in 50 mL of the pH 6.7 buffer. 2 to 3 mL of the resulting solution were then added to 500 mg pancreatin (Millipore Sigma, Darmstadt, Germany). The resulting mixture was agitated by finger tapping the vessel containing the mixture until milky suspension formed. At this time, the remainder of the 50 mL FaSSiF/pH 6.7 buffer solution was added. The resulting suspension was flipped upside down 10 times to produce SIF, which was used fresh. Test compounds were dissolved in DMSO stock to 1 mM. An aliquot of the DMSO stock solution was removed and diluted in the SIF media in 15 mL falcon tubes to produce a mixture with a tested compound concentration of 1 μM. A 1 mL aliquot was immediately removed and diluted once with 1 volume of acetonitrile for T0 timepoint. The mixture was sealed and agitated at 37° C. in an incubator. Aliquots (1 mL) were removed at regular intervals and immediately quenched by the addition of 1 volume of acetonitrile. The resulting samples were analyzed by LC/MS to determine degradation rates.

The values that follow come from patent US12115178B2, “Acylated active agents and methods of their use for the treatment of autoimmune disorders” (Flagship Pioneering Innovations V, Inc., priority 2018, dated 2024).

With `CCC(=O)Oc1ccc2c(c1)oc(=O)c1cc(OC(=O)CC)c(OC(=O)CC)cc12` [Compound 204, [6-oxo-8,9-di(propanoyloxy)benzo[c]chromen-3-yl] propanoate], the “Assay 1 (SGF) (% Remaining @ 1 hour)” value in data set [1] is “C (>75% of the tested compound remaining)”. Besides, the “Assay 2 (SIF) (% @ Remaining 4 hours)” value in data set [2] is reported as “A (<25% of the tested compound remaining)”.

With `CCC(=O)Oc1cc(OC(=O)CC)c2c(=O)c(OC(=O)CC)c(-c3cc(OC(=O)CC)c(OC(=O)CC)c(OC(=O)CC)c3)oc2c1` [Compound 13, [4-oxo-3,5-di(propanoyloxy)-2-[3,4,5-tri(propanoyloxy)phenyl]chromen-7-yl] propanoate], the “Assay 1 (SGF) (% Remaining @ 1 hour)” value in data set [1] is “B (25-75% of the tested compound remaining)”. The “Assay 2 (SIF) (% @ Remaining 4 hours)” value in data set [2] was “A (<25% of the tested compound remaining)”.

Regarding `CCCC(=O)Oc1cc(OC(=O)CCC)c2c(=O)c(OC(=O)CCC)c(-c3ccc(OC(=O)CCC)c(OC(=O)CCC)c3)oc2c1` [Compound 181, [2-butanoyloxy-4-[3,5,7-tri(butanoyloxy)-4-oxo-chromen-2-yl]phenyl] butanoate], in data set [1], the “Assay 1 (SGF) (% Remaining @ 1 hour)” value is on record as “C (>75% of the tested compound remaining)”. Moreover, the “Assay 2 (SIF) (% @ Remaining 4 hours)” value in data set [2] was “A (<25% of the tested compound remaining)”.

Regarding `CCCC(=O)O[C@@H]1[C@@H](OC(=O)CCC)[C@@H](Oc2ccccc2C(=O)O)OC[C@@H]1OC(=O)CCC` [Compound 31, 2-(((2R,3R,4S,5S)-3,4,5-tris(butyryloxy)tetrahydro-2H-pyran-2-yl)oxy)benzoic acid], the “Assay 1 (SGF) (% Remaining @ 1 hour)” value in data set [1] was “C (>75% of the tested compound remaining)”. The “Assay 2 (SIF) (% @ Remaining 4 hours)” value in data set [2] is “A (<25% of the tested compound remaining)”.

Take `CCC(=O)O[C@@H]1[C@@H](OC(=O)CC)[C@H](Oc2ccccc2C(=O)O)OC[C@H]1OC(=O)CC` [Compound 27, 2-(((2S,3R,4S,5R)-3,4,5-tris(propionyloxy)tetrahydro-2H-pyran-2-yl)oxy)benzoic acid]: in data set [1], the “Assay 1 (SGF) (% Remaining @ 1 hour)” value was “C (>75% of the tested compound remaining)”. Besides, the “Assay 2 (SIF) (% @ Remaining 4 hours)” value in data set [2] was “B (25-75% of the tested compound remaining)”.

`CCC(=O)OC1O[C@@H](C)[C@@H](OC(=O)CC)[C@@H](OC(=O)CC)[C@@H]1OC(=O)CC` (stereo partly drawn) [Compound 125, (3S,4R,5R,6S)-6-methyl-3,4,5-tris(propanoyloxy)oxan-2-yl propanoate]: in data set [1], the “Assay 1 (SGF) (% Remaining @ 1 hour)” value is “C (>75% of the tested compound remaining)”. Besides, the “Assay 2 (SIF) (% @ Remaining 4 hours)” value in data set [2] is recorded as “A (<25% of the tested compound remaining)”.

`O=C(CCc1c[nH]c2ccccc12)Oc1cc(C(=O)O)cc(OC(=O)CCc2c[nH]c3ccccc23)c1OC(=O)CCc1c[nH]c2ccccc12` [Compound 202, 3,4,5-tris({[3-(1H-indol-3-yl)propanoyl]oxy})benzoic acid]: the “Assay 1 (SGF) (% Remaining @ 1 hour)” value in data set [1] is “A (<25% of the tested compound remaining)”. In data set [2], the “Assay 2 (SIF) (% @ Remaining 4 hours)” value is listed as “C (>75% of the tested compound remaining)”.

Regarding `CCCC(=O)O[C@H]1[C@@H](OC(=O)CCC)COC(O)[C@@H]1OC(=O)CCC` (stereo partly drawn) [Compound 151, (3S,4S,5R)-4,5-bis(butanoyloxy)-6-hydroxyoxan-3-yl butanoate], the “Assay 1 (SGF) (% Remaining @ 1 hour)” value in data set [1] is on record as “C (>75% of the tested compound remaining)”. Also, the “Assay 2 (SIF) (% @ Remaining 4 hours)” value in data set [2] is recorded as “A (<25% of the tested compound remaining)”.

For the compound `CCCC(=O)O[C@@H]1[C@H](OC(=O)CCC)[C@H](C)OC(Oc2ccc(N)cc2C(=O)O)[C@H]1OC(=O)CCC` (stereo partly drawn) [Compound 41, 5-amino-2-(((3S,4R,5R,6S)-3,4,5-tris(butyryloxy)-6-methyltetrahydro-2H-pyran-2-yl)oxy)benzoic acid], the “Assay 1 (SGF) (% Remaining @ 1 hour)” value in data set [1] was “C (>75% of the tested compound remaining)”. The “Assay 2 (SIF) (% @ Remaining 4 hours)” value in data set [2] is given as “C (>75% of the tested compound remaining)”.

Regarding `CC(=O)Oc1ccc(C2CC(=O)c3c(OC(C)=O)cc(OC(C)=O)cc3O2)cc1` (stereo not shown) [Compound 9, [4-(5,7-diacetoxy-4-oxo-chroman-2-yl)phenyl] acetate], in data set [1], the “Assay 1 (SGF) (% Remaining @ 1 hour)” value is “C (>75% of the tested compound remaining)”. Further, the “Assay 2 (SIF) (% @ Remaining 4 hours)” value in data set [2] was “A (<25% of the tested compound remaining)”.

As for `CCCC(=O)Oc1cc(OC(=O)CCC)c2c(=O)c(OC(=O)CCC)c(-c3cc(OC(=O)CCC)c(OC(=O)CCC)c(OC(=O)CCC)c3)oc2c1` [Compound 169, 3,5-bis(butanoyloxy)-4-oxo-2-[3,4,5-tris(butanoyloxy)phenyl]-4H-chromen-7-yl butanoate], the “Assay 1 (SGF) (% Remaining @ 1 hour)” value in data set [1] is on record as “C (>75% of the tested compound remaining)”. For the same compound, the “Assay 2 (SIF) (% @ Remaining 4 hours)” value in data set [2] is given as “C (>75% of the tested compound remaining)”.

With `CCC(=O)O[C@@H]1[C@@H](OC(=O)CC)[C@H](OC(=O)CC)CO[C@H]1O` [Compound 129, (2R,3R,4S,5R)-2-hydroxy-4,5-bis(propanoyloxy)oxan-3-yl propanoate], the “Assay 1 (SGF) (% Remaining @ 1 hour)” value in data set [1] is given as “C (>75% of the tested compound remaining)”. Further, in data set [2], the “Assay 2 (SIF) (% @ Remaining 4 hours)” value is “A (<25% of the tested compound remaining)”.

For the compound `CCC(=O)O[C@H]1[C@H](OC(=O)CC)[C@H](OC(=O)Cc2c[nH]c3ccccc23)O[C@@H](C)[C@H]1OC(=O)CC` [Compound 118, (2S,3S,4R,5R,6S)-2-{[2-(1H-indol-3-yl)acetyl]oxy}-6-methyl-4,5-bis(propanoyloxy)oxan-3-yl propanoate], in data set [1], the “Assay 1 (SGF) (% Remaining @ 1 hour)” value is reported as “C (>75% of the tested compound remaining)”. In data set [2], the “Assay 2 (SIF) (% @ Remaining 4 hours)” value is recorded as “A (<25% of the tested compound remaining)”.

As to `CCCC(=O)Oc1cc(OC(=O)CCC)c2c(=O)cc(-c3ccc(OC(=O)CCC)c(OC(=O)CCC)c3)oc2c1` [Compound 171, 2-[3,4-bis(butanoyloxy)phenyl]-5-(butanoyloxy)-4-oxo-4H-chromen-7-yl butanoate], in data set [1], the “Assay 1 (SGF) (% Remaining @ 1 hour)” value is given as “C (>75% of the tested compound remaining)”. Further, the “Assay 2 (SIF) (% @ Remaining 4 hours)” value in data set [2] is reported as “A (<25% of the tested compound remaining)”.

As to `CCC(=O)OC1OC[C@@H](OC(=O)CC)[C@H](OC(=O)CC)[C@H]1OC(=O)CC` (stereo partly drawn) [Compound 130, (3R,4S,5R)-3,4,5-tris(propanoyloxy)oxan-2-yl propanoate], the “Assay 1 (SGF) (% Remaining @ 1 hour)” value in data set [1] is given as “C (>75% of the tested compound remaining)”. Besides, in data set [2], the “Assay 2 (SIF) (% @ Remaining 4 hours)” value is listed as “A (<25% of the tested compound remaining)”.

On to `CCC(=O)O[C@@H]1[C@H](OC(=O)CC)[C@H](C)OC(Oc2ccccc2C(=O)O)[C@H]1OC(=O)CC` (stereo partly drawn) [Compound 25, 2-(((3S,4R,5R,6S)-6-methyl-3,4,5-tris(propionyloxy)tetrahydro-2H-pyran-2-yl)oxy)benzoic acid], for which the “Assay 1 (SGF) (% Remaining @ 1 hour)” value in data set [1] is on record as “C (>75% of the tested compound remaining)”. Also, the “Assay 2 (SIF) (% @ Remaining 4 hours)” value in data set [2] was “C (>75% of the tested compound remaining)”.

`CCCC(=O)O[C@@H]1[C@H](OC(=O)CCC)[C@H](C)OC(O)[C@H]1OC(=O)CCC` (stereo partly drawn) [Compound 136, (3S,4R,5R,6S)-4,5-bis(butanoyloxy)-2-hydroxy-6-methyloxan-3-yl butanoate]: the “Assay 1 (SGF) (% Remaining @ 1 hour)” value in data set [1] is on record as “C (>75% of the tested compound remaining)”. Moreover, the “Assay 2 (SIF) (% @ Remaining 4 hours)” value in data set [2] is listed as “A (<25% of the tested compound remaining)”.

Consider `CC(=O)Oc1cc(OC(C)=O)c2c(=O)c(OC(C)=O)c(-c3ccc(OC(C)=O)c(OC(C)=O)c3)oc2c1` [Compound 4, [2-acetoxy-4-(3,5,7-triacetoxy-4-oxo-chromen-2-yl)phenyl] acetate], for which the “Assay 1 (SGF) (% Remaining @ 1 hour)” value in data set [1] is listed as “C (>75% of the tested compound remaining)”.

On to `CCC(=O)O[C@@H]1OC[C@H](OC(=O)CC)[C@H](OC(=O)CC)[C@H]1OC(=O)CC` [Compound 128, (2S,3R,4S,5S)-3,4,5-tris(propanoyloxy)oxan-2-yl propanoate], for which the “Assay 1 (SGF) (% Remaining @ 1 hour)” value in data set [1] is “C (>75% of the tested compound remaining)”.

On to `CCC(=O)Oc1cc(OC(=O)CC)c2c(c1)O[C@H](c1cc(OC(=O)CC)c(OC(=O)CC)c(OC(=O)CC)c1)[C@H](OC(=O)c1cc(OC(=O)CC)c(OC(=O)CC)c(OC(=O)CC)c1)C2` [Compound 195, [(2R,3R)-5,7-di(propanoyloxy)-2-[3,4,5-tri(propanoyloxy)phenyl]chroman-3-yl] 3,4,5-tri(propanoyloxy)benzoate], for which, in data set [1], the “Assay 1 (SGF) (% Remaining @ 1 hour)” value is on record as “C (>75% of the tested compound remaining)”.
